Experiments:
HLA-A*02:01 = HLA-A*02:01 (Homo sapiens, UniProt P04439, D140Y/D185E/D98H/E176V/E277Q/G131W/G231S/I119V/I121R/I166T/I218V/L300P/L318F/N151K/N90K/P208A/P217A/Q86G/Q94H/R138H/R169H/T345S); experiment: MHC binding assay (UV-ligand exchange, β2m ELISA, peptide exchange yield); details: binding to HLA-A*02:01 ranged by peptide exchange yield (UV-ligand exchange, β2m ELISA)
Description: Candidate peptides for T cell based therapies according to the present invention were further tested for their MHC binding capacity (affinity). The individual peptide-MHC complexes were produced by UV-ligand exchange, where a UV-sensitive peptide is cleaved upon UV-irradiation, and exchanged with the peptide of interest as analyzed. Only peptide candidates that can effectively bind and stabilize the peptide-receptive MHC molecules prevent dissociation of the MHC complexes. To determine the yield of the exchange reaction, an ELISA was performed based on the detection of the light chain (β2 m) of stabilized MHC complexes. The assay was performed as generally described in Rodenko et al. (Rodenko et al., 2006).
96 well MAXISorp plates (NUNC) were coated over night with 2 μg/ml streptavidin in PBS at room temperature, washed 4× and blocked forth at 37° C. in 2% BSA containing blocking buffer. Refolded HLA-A*02:01/MLA-001 monomers served as standards, covering the range of 15-500 ng/ml. Peptide-MHC monomers of the UV-exchange reaction were diluted 100 fold in blocking buffer. Samples were incubated for 1 h at 37° C., washed four times, incubated with 2 ug/ml HRP conjugated anti-β2 m for 1 h at 37° C., washed again and detected with TMB solution that is stopped with […]. Absorption was measured at 450 nm. Candidate peptides that show a high exchange yield (preferably higher than 50%, most preferred higher than 75%) are generally preferred for a generation and production of antibodies or fragments thereof, and/or T cell receptors or fragments thereof, as they show sufficient avidity to the MHC molecules and prevent dissociation of the MHC complexes.

[1] = system: CD8+ T cells from healthy HLA-A*02 donors; experiment: In vitro immunogenicity: priming of CD8+ T cells with aAPCs loaded with peptide/MHC complexes and anti-CD28, pMHC multimer readout; format: cell-based, human; details: for Wells positive [%]: HLA-A*02 restricted peptides, positive wells among evaluable, Table 10B; for Wells (in vitro immunogenicity, positive wells): HLA class I peptides, Table 10A
Description: In order to obtain information regarding the immunogenicity of the TUMAPs of the present invention, the inventors performed investigations using an in vitro T-cell priming assay based on repeated stimulations of CD8+ T cells with artificial antigen presenting cells (aAPCs) loaded with peptide/MHC complexes and anti-CD28 antibody.
In order to perform in vitro stimulations by artificial antigen presenting cells loaded with peptide-MHC complex (pMHC) and anti-CD28 antibody, the inventors first isolated CD8+ T cells from fresh HLA-A*02 leukapheresis products via positive selection using CD8 microbeads (Miltenyi Biotec, Bergisch-Gladbach, Germany) of healthy donors obtained from the University clinics Mannheim, Germany, after informed consent.
PBMCs and isolated CD8+ lymphocytes were incubated in T-cell medium (TCM) until use consisting of RPMI-Glutamax (Invitrogen, Karlsruhe, Germany) supplemented with 10% heat inactivated human AB serum (PAN-Biotech, Aidenbach, Germany), 100 U/ml Penicillin/100 μg/ml Streptomycin (Cambrex, Cologne, Germany), 1 mM sodium pyruvate (CC Pro, Oberdorla, Germany), 20 μg/ml Gentamycin (Cambrex). 2.5 ng/ml IL-7 (PromoCell, Heidelberg, Germany) and 10 U/ml IL-2 (Novartis Pharma, Nürnberg, Germany) were also added to the TCM at this step.
Generation of pMHC/anti-CD28 coated beads, T-cell stimulations and readout was performed in a highly defined in vitro system using four different pMHC molecules per stimulation condition and 8 different pMHC molecules per readout condition.
The purified co-stimulatory mouse IgG2a anti human CD28 Ab 9.3 (Jung et al., 1987) was chemically biotinylated using Sulfo-N-hydroxysuccinimidobiotin as recommended by the manufacturer (Perbio, Bonn, Germany). Beads used were 5.6 μm diameter streptavidin coated polystyrene particles (Bangs Laboratories, Illinois, USA).
800.000 beads/200 μl were coated in 96-well plates in the presence of 4×12.5 ng different biotin-pMHC, washed and 600 ng biotin anti-CD28 were added subsequently in a volume of 200 μl. Stimulations were initiated in 96-well plates by co-incubating 1×10^6 CD8+ T cells with 2×10^5 washed coated beads in 200 μl TCM supplemented with 5 ng/ml IL-12 (PromoCell) for 3 days at 37° C. Half of the medium was then exchanged by fresh TCM supplemented with 80 U/ml IL-2 and incubating was continued for 4 days at 37° C. This stimulation cycle was performed for a total of three times. For the pMHC multimer readout using 8 different pMHC molecules per condition, a two-dimensional combinatorial coding approach was used as previously described (Andersen et al., 2012) with minor modifications encompassing coupling to 5 different fluorochromes. Finally, multimeric analyses were performed by staining the cells with Live/dead near IR dye (Invitrogen, Karlsruhe, Germany), CD8-FITC antibody clone SK1 (BD, Heidelberg, Germany) and fluorescent pMHC multimers. For analysis, a BD LSRII SORP cytometer equipped with appropriate lasers and filters was used. Peptide specific cells were calculated as percentage of total CD8+ cells. Evaluation of multimeric analysis was done using the FlowJo software (Tree Star, Oregon, USA). In vitro priming of specific multimer+CD8+ lymphocytes was detected by comparing to negative control stimulations.

## 4 (SLDVVNLLV; listed as Homo sapiens) [compound 4]
HLA-A*02:01
  Peptide exchange: ++++ (>75% = ++++)
[1]
  Wells positive [%]: + (<20% = +)

## 5 (IQDPVIFYV; listed as Homo sapiens) [compound 5]
HLA-A*02:01
  Peptide exchange: ++++ (>75% = ++++)
[1]
  Wells positive [%]: +++ (50%-69% = +++)

## 6 (SIVDFLITA; listed as Homo sapiens) [compound 6]
HLA-A*02:01
  Peptide exchange: +++ (>50 = +++)
[1]
  Wells positive [%]: + (<20% = +)

## 9 (SLVDARFQL; listed as Homo sapiens) [compound 9]
HLA-A*02:01
  Peptide exchange: ++++ (>75% = ++++)
[1]
  Wells positive [%]: + (<20% = +)

## 10 (GLWHGMFANV; listed as Homo sapiens) [compound 10]
HLA-A*02:01
  Peptide exchange: ++++ (>75% = ++++)
[1]
  Wells positive [%]: ++ (20%-49% = ++)

## 14 (GLAGPVRGV; listed as Homo sapiens) [compound 14]
HLA-A*02:01
  Peptide exchange: +++ (>50 = +++)
[1]
  Wells positive [%]: + (<20% = +)

## 15 (YLAPENGYLMEA; listed as Homo sapiens) [compound 15]
HLA-A*02:01
  Peptide exchange: +++ (>50 = +++)
[1]
  Wells positive [%]: + (<20% = +)

## 16 (ILGPQGNTI; listed as Homo sapiens) [compound 16]
HLA-A*02:01
  Peptide exchange: +++ (>50 = +++)
[1]
  Wells positive [%]: + (<20% = +)

## 17 (RLSQLEGVNV; listed as Homo sapiens) [compound 17]
HLA-A*02:01
  Peptide exchange: +++ (>50 = +++)
[1]
  Wells positive [%]: + (<20% = +)

## 23 (YTLSKTEFL; listed as Homo sapiens) [compound 23]
HLA-A*02:01
  Peptide exchange: ++++ (>75% = ++++)
[1]
  Wells positive [%]: + (<20% = +)

## 24 (SLLGGITVV; listed as Homo sapiens) [compound 24]
HLA-A*02:01
  Peptide exchange: ++++ (>75% = ++++)
[1]
  Wells positive [%]: ++ (20%-49% = ++)

## 27 (STTNGGILTV; listed as Homo sapiens) [compound 27]
HLA-A*02:01
  Peptide exchange: +++ (>50 = +++)
[1]
  Wells positive [%]: + (<20% = +)

## 29 (ALSSPPPTV; listed as Homo sapiens) [compound 29]
HLA-A*02:01
  Peptide exchange: +++ (>50 = +++)
[1]
  Wells positive [%]: + (<20% = +)

## 30 (ILDISRSEV; listed as Homo sapiens) [compound 30]
HLA-A*02:01
  Peptide exchange: +++ (>50 = +++)
[1]
  Wells positive [%]: ++++ (>=70% = ++++)

## 41 (FLDDGNQMLL; listed as Homo sapiens) [compound 41]
HLA-A*02:01
  Peptide exchange: ++++ (>75% = ++++)
[1]
  Wells positive [%]: + (<20% = +)

## 155 (VLSSGLTAA; listed as Homo sapiens) [compound 155]
[1]
  Wells (in vitro immunogenicity, positive wells): + (<20% = +)

## 156 (KLVEFDFLGA; listed as Homo sapiens) [compound 156]
[1]
  Wells (in vitro immunogenicity, positive wells): + (<20% = +)

## 159 (SLIEDLILL; listed as Homo sapiens) [compound 159]
[1]
  Wells (in vitro immunogenicity, positive wells): + (<20% = +)

## 160 (SLLGGNIRL; listed as Homo sapiens) [compound 160]
[1]
  Wells (in vitro immunogenicity, positive wells): ++ (20%-49% = ++)

## 162 (TLLAAEFLKQV; listed as Homo sapiens) [compound 162]
[1]
  Wells (in vitro immunogenicity, positive wells): + (<20% = +)

## 164 (ALADLTGTVV; listed as Homo sapiens) [compound 164]
[1]
  Wells (in vitro immunogenicity, positive wells): + (<20% = +)

## 167 (SLWGGDVVL; listed as Homo sapiens) [compound 167]
[1]
  Wells (in vitro immunogenicity, positive wells): ++ (20%-49% = ++)

## 168 (LTAPPEALLMV; listed as Homo sapiens) [compound 168]
[1]
  Wells (in vitro immunogenicity, positive wells): + (<20% = +)

## 170 (GLIEIISNA; listed as Homo sapiens) [compound 170]
[1]
  Wells (in vitro immunogenicity, positive wells): + (<20% = +)

## 172 (LLYGHTVTV; listed as Homo sapiens) [compound 172]
[1]
  Wells (in vitro immunogenicity, positive wells): ++ (20%-49% = ++)

## 173 (FVFSFPVSV; listed as Homo sapiens) [compound 173]
[1]
  Wells (in vitro immunogenicity, positive wells): ++ (20%-49% = ++)

## 176 (SMSGYDQVL; listed as Homo sapiens) [compound 176]
[1]
  Wells (in vitro immunogenicity, positive wells): + (<20% = +)

## 177 (NLLQVLEKV; listed as Homo sapiens) [compound 177]
[1]
  Wells (in vitro immunogenicity, positive wells): + (<20% = +)

## 178 (ALNEEAGRLLL; listed as Homo sapiens) [compound 178]
[1]
  Wells (in vitro immunogenicity, positive wells): + (<20% = +)

## 182 (YLAPFLRNV; listed as Homo sapiens) [compound 182]
[1]
  Wells (in vitro immunogenicity, positive wells): ++ (20%-49% = ++)

## 184 (LMTKEISSV; listed as Homo sapiens) [compound 184]
[1]
  Wells (in vitro immunogenicity, positive wells): + (<20% = +)

## 186 (VLYPHEPTAV; listed as Homo sapiens) [compound 186]
[1]
  Wells (in vitro immunogenicity, positive wells): + (<20% = +)

## 189 (ALLRTVVSV; listed as Homo sapiens) [compound 189]
[1]
  Wells (in vitro immunogenicity, positive wells): + (<20% = +)

## 192 (ALNPADITV; listed as Homo sapiens) [compound 192]
[1]
  Wells (in vitro immunogenicity, positive wells): ++ (20%-49% = ++)

## 193 (ALVQDLAKA; listed as Homo sapiens) [compound 193]
[1]
  Wells (in vitro immunogenicity, positive wells): ++ (20%-49% = ++)

## 198 (NLIEKSIYL; listed as Homo sapiens) [compound 198]
[1]
  Wells (in vitro immunogenicity, positive wells): + (<20% = +)

## 200 (YLNVQVKEL; listed as Homo sapiens) [compound 200]
[1]
  Wells (in vitro immunogenicity, positive wells): + (<20% = +)

## 203 (FLIPYAIML; listed as Homo sapiens) [compound 203]
[1]
  Wells (in vitro immunogenicity, positive wells): + (<20% = +)

## 204 (GVYDGEEHSV; listed as Homo sapiens) [compound 204]
[1]
  Wells (in vitro immunogenicity, positive wells): + (<20% = +)

## 205 (KIVDFSYSV; listed as Homo sapiens) [compound 205]
[1]
  Wells (in vitro immunogenicity, positive wells): ++ (20%-49% = ++)

Source: patent US12084522B2, “Peptides, combination of peptides, and cell based medicaments for use in immunotherapy against urinary bladder cancer and other cancers” (Immatics Biotechnologies GmbH, priority 2016, dated 2024)
